Active and inactive are the calls of the source. The rule behind the calls is not given here.

One series has as its target T1, Protein cereblon/CREB-binding protein (Homo sapiens, UniProt Q92793+Q96SW2). As to the kind of experiment: PROTAC activity at CBP/CRBN in human VCaP cells assessed as protein degradation incubated for 4 hrs by Western blot analysis. In kind it is cell-based.
Details: not given
On the technique in general: Immunoblotting shows a protein as a band on a membrane.
Target sequence in this assay (Q92793 whole entry): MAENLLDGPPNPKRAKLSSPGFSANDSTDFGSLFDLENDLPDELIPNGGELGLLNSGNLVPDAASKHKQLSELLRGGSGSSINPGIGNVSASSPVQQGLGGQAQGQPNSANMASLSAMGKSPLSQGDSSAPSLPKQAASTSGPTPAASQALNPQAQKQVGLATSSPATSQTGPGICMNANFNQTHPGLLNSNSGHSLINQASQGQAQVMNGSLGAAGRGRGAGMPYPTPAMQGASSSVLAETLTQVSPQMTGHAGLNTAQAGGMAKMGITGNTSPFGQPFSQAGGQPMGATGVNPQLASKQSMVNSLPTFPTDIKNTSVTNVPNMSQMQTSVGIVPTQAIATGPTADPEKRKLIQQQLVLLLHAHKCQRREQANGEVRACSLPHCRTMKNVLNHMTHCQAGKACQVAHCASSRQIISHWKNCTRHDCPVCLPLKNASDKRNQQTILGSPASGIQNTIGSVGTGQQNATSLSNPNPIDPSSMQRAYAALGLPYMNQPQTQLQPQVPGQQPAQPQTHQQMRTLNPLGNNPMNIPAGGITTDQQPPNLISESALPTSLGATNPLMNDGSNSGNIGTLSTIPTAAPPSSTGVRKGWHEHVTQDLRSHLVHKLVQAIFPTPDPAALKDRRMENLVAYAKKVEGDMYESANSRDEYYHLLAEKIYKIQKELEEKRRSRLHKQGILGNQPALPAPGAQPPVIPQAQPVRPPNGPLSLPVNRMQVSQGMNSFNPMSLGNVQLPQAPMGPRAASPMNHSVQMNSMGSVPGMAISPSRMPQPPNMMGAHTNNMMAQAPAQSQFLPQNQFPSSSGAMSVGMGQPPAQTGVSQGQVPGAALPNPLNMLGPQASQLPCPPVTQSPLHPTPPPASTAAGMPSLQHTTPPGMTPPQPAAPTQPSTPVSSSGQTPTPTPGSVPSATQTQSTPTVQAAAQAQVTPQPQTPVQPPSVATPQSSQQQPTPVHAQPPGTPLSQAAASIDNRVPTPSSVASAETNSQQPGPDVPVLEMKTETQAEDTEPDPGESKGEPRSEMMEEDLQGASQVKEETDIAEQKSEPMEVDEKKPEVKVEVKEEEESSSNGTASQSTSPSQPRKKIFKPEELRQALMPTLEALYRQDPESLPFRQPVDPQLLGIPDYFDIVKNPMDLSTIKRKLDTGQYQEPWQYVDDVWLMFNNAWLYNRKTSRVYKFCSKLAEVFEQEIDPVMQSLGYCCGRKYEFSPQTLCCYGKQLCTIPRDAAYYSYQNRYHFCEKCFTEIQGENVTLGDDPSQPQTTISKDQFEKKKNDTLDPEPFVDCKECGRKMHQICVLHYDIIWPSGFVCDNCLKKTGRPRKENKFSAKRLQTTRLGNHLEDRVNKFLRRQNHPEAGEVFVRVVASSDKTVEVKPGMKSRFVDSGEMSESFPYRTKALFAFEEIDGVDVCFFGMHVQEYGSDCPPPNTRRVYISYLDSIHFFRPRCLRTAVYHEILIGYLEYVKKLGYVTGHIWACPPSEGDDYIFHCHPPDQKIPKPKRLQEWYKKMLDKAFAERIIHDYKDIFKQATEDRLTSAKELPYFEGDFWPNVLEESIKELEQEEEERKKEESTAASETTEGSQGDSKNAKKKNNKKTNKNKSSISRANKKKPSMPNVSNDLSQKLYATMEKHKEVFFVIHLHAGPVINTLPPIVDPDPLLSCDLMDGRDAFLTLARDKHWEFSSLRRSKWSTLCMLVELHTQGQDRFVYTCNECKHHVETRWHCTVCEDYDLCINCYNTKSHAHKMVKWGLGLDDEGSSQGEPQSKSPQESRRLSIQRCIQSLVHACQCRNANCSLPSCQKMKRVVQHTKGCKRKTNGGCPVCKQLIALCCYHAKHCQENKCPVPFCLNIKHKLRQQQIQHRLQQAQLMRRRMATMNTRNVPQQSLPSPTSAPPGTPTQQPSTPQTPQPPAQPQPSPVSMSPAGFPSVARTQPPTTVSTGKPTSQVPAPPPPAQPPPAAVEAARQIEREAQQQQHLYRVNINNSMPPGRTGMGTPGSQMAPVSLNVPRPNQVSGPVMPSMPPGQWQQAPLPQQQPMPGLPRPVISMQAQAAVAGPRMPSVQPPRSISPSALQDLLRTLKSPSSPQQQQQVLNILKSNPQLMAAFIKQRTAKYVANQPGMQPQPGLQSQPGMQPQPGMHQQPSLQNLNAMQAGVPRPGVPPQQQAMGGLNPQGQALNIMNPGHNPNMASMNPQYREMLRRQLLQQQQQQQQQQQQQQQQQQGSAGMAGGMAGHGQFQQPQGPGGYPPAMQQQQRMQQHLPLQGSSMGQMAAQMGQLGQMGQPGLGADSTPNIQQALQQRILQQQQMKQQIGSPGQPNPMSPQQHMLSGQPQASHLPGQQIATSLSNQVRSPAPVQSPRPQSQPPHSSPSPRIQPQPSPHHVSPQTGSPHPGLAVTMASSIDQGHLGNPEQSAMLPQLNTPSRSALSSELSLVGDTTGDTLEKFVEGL
Target sequence in this assay (Q96SW2 whole entry): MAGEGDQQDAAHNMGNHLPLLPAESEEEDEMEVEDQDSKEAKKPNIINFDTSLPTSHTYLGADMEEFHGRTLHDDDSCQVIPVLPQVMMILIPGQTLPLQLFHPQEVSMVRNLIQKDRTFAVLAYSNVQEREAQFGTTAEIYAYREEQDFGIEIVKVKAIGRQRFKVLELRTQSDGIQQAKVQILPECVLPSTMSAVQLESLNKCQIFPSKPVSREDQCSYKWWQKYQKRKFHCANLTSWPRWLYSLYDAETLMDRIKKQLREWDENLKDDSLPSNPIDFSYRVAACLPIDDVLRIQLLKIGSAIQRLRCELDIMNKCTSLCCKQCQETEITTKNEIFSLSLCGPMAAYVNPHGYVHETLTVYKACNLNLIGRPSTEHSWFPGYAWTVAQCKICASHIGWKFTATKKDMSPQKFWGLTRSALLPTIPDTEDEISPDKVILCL
`CC(=O)N1CCc2c(c(N3CCCc4cc(-c5cnn(C)c5)c(C(F)F)cc43)nn2C2CCN(C(=O)Nc3ccc4c(c3)C(=O)N(C3CCC(=O)NC3=O)C4=O)CC2)C1` (configuration not stated): the half-maximal degradation concentration (DC50) is below 0.0002 µM.

In the case of `CC(=O)N1CCc2c(c(N3CCCc4cc(-c5cnn(C)c5)c(C(F)F)cc43)nn2[C@H]2CC[C@H](CN3CCN(c4cccc5c4C(=O)N(C4CCC(=O)NC4=O)C5=O)CC3)CC2)C1` (some centres not stated), the DC50 came to 0.7 µM.

`CC(=O)N1CCc2c(c(N3CCCc4cc(-c5cnn(C)c5)c(C(F)F)cc43)nn2C2CCN(C(=O)c3ccc4c(c3)C(=O)N(C3CCC(=O)NC3=O)C4=O)CC2)C1` (configuration not stated): the DC50 is above 1 µM.

For `CC(=O)N1CCc2c(c(N3CCCc4cc(-c5cnn(C)c5)c(C(F)F)cc43)nn2C2CCN(C(=O)Nc3cccc4c3C(=O)N(C3CCC(=O)NC3=O)C4=O)CC2)C1` (configuration not stated), the DC50 is above 1 µM.

The next series addresses T1, Protein cereblon/CREB-binding protein. As to the kind of experiment: PROTAC activity at CBP/CRBN in human VCaP cells assessed as maximal protein degradation at 1 uM incubated for 4 hrs by Western blot analysis relative to control. It counts as cell-based.
Details: not given
`CC(=O)N1CCc2c(c(N3CCCc4cc(-c5cnn(C)c5)c(C(F)F)cc43)nn2C2CCN(C(=O)Nc3ccc4c(c3)C(=O)N(C3CCC(=O)NC3=O)C4=O)CC2)C1` (configuration not stated): the Emax was above 95%.

For `CC(=O)N1CCc2c(c(N3CCCc4cc(-c5cnn(C)c5)c(C(F)F)cc43)nn2[C@H]2CC[C@H](CN3CCN(c4cccc5c4C(=O)N(C4CCC(=O)NC4=O)C5=O)CC3)CC2)C1` (some centres not stated), the Emax is 53%.

`CC(=O)N1CCc2c(c(N3CCCc4cc(-c5cnn(C)c5)c(C(F)F)cc43)nn2C2CCN(C(=O)c3ccc4c(c3)C(=O)N(C3CCC(=O)NC3=O)C4=O)CC2)C1` (configuration not stated): the Emax is below 50%.

Consider `CC(=O)N1CCc2c(c(N3CCCc4cc(-c5cnn(C)c5)c(C(F)F)cc43)nn2C2CCN(C(=O)Nc3cccc4c3C(=O)N(C3CCC(=O)NC3=O)C4=O)CC2)C1` (configuration not stated), for which the maximal response (Emax) was below 50%.

The target in a further series is T2, Protein cereblon/Histone acetyltransferase p300 (Homo sapiens, UniProt Q09472+Q96SW2). The series is described as follows: PROTAC activity at p300/CRBN in human VCaP cells assessed as protein degradation incubated for 4 hrs by Western blot analysis. It counts as cell-based.
Details: not given
In the case of `CC(=O)N1CCc2c(c(N3CCCc4cc(-c5cnn(C)c5)c(C(F)F)cc43)nn2C2CCN(C(=O)Nc3ccc4c(c3)C(=O)N(C3CCC(=O)NC3=O)C4=O)CC2)C1` (configuration not stated), the DC50 is below 0.0002 µM.

Turning to `CC(=O)N1CCc2c(c(N3CCCc4cc(-c5cnn(C)c5)c(C(F)F)cc43)nn2[C@H]2CC[C@H](CN3CCN(c4cccc5c4C(=O)N(C4CCC(=O)NC4=O)C5=O)CC3)CC2)C1` (some centres not stated), the DC50 is above 1 µM.

As for `CC(=O)N1CCc2c(c(N3CCCc4cc(-c5cnn(C)c5)c(C(F)F)cc43)nn2C2CCN(C(=O)c3ccc4c(c3)C(=O)N(C3CCC(=O)NC3=O)C4=O)CC2)C1` (configuration not stated), the DC50 was above 1 µM.

For `CC(=O)N1CCc2c(c(N3CCCc4cc(-c5cnn(C)c5)c(C(F)F)cc43)nn2C2CCN(C(=O)Nc3cccc4c3C(=O)N(C3CCC(=O)NC3=O)C4=O)CC2)C1` (configuration not stated), the DC50 was above 1 µM.

The target of a further series is T2, Protein cereblon/Histone acetyltransferase p300. As to the kind of experiment: PROTAC activity at p300/CRBN in human VCaP cells assessed as maximal protein degradation at 1 uM incubated for 4 hrs by Western blot analysis relative to control. In kind it is cell-based.
Details: not given
On to `CC(=O)N1CCc2c(c(N3CCCc4cc(-c5cnn(C)c5)c(C(F)F)cc43)nn2C2CCN(C(=O)Nc3ccc4c(c3)C(=O)N(C3CCC(=O)NC3=O)C4=O)CC2)C1` (configuration not stated), for which the maximal effect (Emax) was above 95%.

In the case of `CC(=O)N1CCc2c(c(N3CCCc4cc(-c5cnn(C)c5)c(C(F)F)cc43)nn2[C@H]2CC[C@H](CN3CCN(c4cccc5c4C(=O)N(C4CCC(=O)NC4=O)C5=O)CC3)CC2)C1` (some centres not stated), the Emax is 33%.

In the case of `CC(=O)N1CCc2c(c(N3CCCc4cc(-c5cnn(C)c5)c(C(F)F)cc43)nn2C2CCN(C(=O)c3ccc4c(c3)C(=O)N(C3CCC(=O)NC3=O)C4=O)CC2)C1` (configuration not stated), the Emax is below 50%.

Regarding `CC(=O)N1CCc2c(c(N3CCCc4cc(-c5cnn(C)c5)c(C(F)F)cc43)nn2C2CCN(C(=O)Nc3cccc4c3C(=O)N(C3CCC(=O)NC3=O)C4=O)CC2)C1` (configuration not stated), the maximal effect (Emax) is below 50%.

Test system in another series: not listed separately
The series is described as follows: Oral plasma exposure in SCID mouse at 5 mg/kg, po measured after 1 hr. In kind it is ADME, organism-based. Particulars: in vivo, po, 5 mg/kg, 1 h, BLD = below limit of detection.
Consider `CC(=O)N1CCc2c(c(N3CCCc4cc(-c5cnn(C)c5)c(C(F)F)cc43)nn2C2CCN(C(=O)Nc3ccc4c(c3)C(=O)N(C3CCC(=O)NC3=O)C4=O)CC2)C1` (configuration not stated), for which the Cp result is “Bld”.

Test system in the next series: not listed separately
The series is described as follows: Oral plasma exposure in SCID mouse at 5 mg/kg, po measured after 3 hrs. In kind it is ADME, organism-based. Particulars: in vivo, po, 5 mg/kg, 3 h, BLD = below limit of detection.
On to `CC(=O)N1CCc2c(c(N3CCCc4cc(-c5cnn(C)c5)c(C(F)F)cc43)nn2C2CCN(C(=O)Nc3ccc4c(c3)C(=O)N(C3CCC(=O)NC3=O)C4=O)CC2)C1` (configuration not stated), for which the Cp entry is given as “Bld”.

Test system in the next series: not listed separately
As to the kind of experiment: Oral plasma exposure in SCID mouse at 5 mg/kg, po measured after 6 hrs. Particulars: in vivo, po, 5 mg/kg, 6 h, BLD = below limit of detection. It counts as ADME, organism-based.
As to `CC(=O)N1CCc2c(c(N3CCCc4cc(-c5cnn(C)c5)c(C(F)F)cc43)nn2C2CCN(C(=O)Nc3ccc4c(c3)C(=O)N(C3CCC(=O)NC3=O)C4=O)CC2)C1` (configuration not stated), the Cp result is reported as “Bld”.

The test system of the next series is VCaP. As to the kind of experiment: Antiproliferative activity against AR positive human VCaP cells assessed inhibition of cell growth measured after 4 days by CellTiter-Glo Luminescent cell viability assay. It counts as functional, cell-based. Particulars: 96 h. (In general: In ATP-based viability assays light output follows the ATP content of the culture.)
Turning to `CNC(=O)c1ccc(N2C(=S)N(c3ccc(C#N)c(C(F)(F)F)c3)C(=O)C2(C)C)cc1F` [ENZALUTAMIDE], half-maximal inhibition (IC50) was put at 9.5 µM.

The next series relates to CWR22R. As to the kind of experiment: Antiproliferative activity against AR positive human 22Rv1 cells assessed inhibition of cell growth measured after 4 days by CellTiter-Glo Luminescent cell viability assay. It counts as functional, cell-based. Particulars: 22Rv1, 96 h.
As to `CNC(=O)c1ccc(N2C(=S)N(c3ccc(C#N)c(C(F)(F)F)c3)C(=O)C2(C)C)cc1F` [ENZALUTAMIDE], the IC50 was above 1 µM.

Another series has as its system LNCaP. As to the kind of experiment: Antiproliferative activity against AR positive human LNCaP cells assessed inhibition of cell growth measured after 4 days by CellTiter-Glo Luminescent cell viability assay. It counts as functional, cell-based. Conditions: 96 h.
The molecule `CNC(=O)c1ccc(N2C(=S)N(c3ccc(C#N)c(C(F)(F)F)c3)C(=O)C2(C)C)cc1F` [ENZALUTAMIDE] had an IC50 of 8 µM.

The next series relates to VCaP. As to the kind of experiment: Reduction in KLK3 gene expression in AR positive human VCaP cells assessed as reduction in mRNA level at 1000 nM measured after 6 hrs by qRT-PCT analysis. It counts as functional, cell-based.
Details: not given
On to `CNC(=O)c1ccc(N2C(=S)N(c3ccc(C#N)c(C(F)(F)F)c3)C(=O)C2(C)C)cc1F` [ENZALUTAMIDE], for which the result was Active.

The next series deals with VCaP. The series is described as follows: Reduction in AR gene expression in AR positive human VCaP cells assessed as reduction in mRNA level at 1000 nM measured after 6 hrs by qRT-PCT analysis. It counts as functional, cell-based.
Details: not given
For the molecule `CNC(=O)c1ccc(N2C(=S)N(c3ccc(C#N)c(C(F)(F)F)c3)C(=O)C2(C)C)cc1F` [ENZALUTAMIDE], the outcome was inactive.

The subject of a further series is VCaP. The series is described as follows: Reduction in c-Myc gene expression in AR positive human VCaP cells assessed as reduction in mRNA level at 1000 nM measured after 6 hrs by qRT-PCT analysis. In kind it is functional, cell-based.
Details: not given
Take `CNC(=O)c1ccc(N2C(=S)N(c3ccc(C#N)c(C(F)(F)F)c3)C(=O)C2(C)C)cc1F` [ENZALUTAMIDE]: the outcome was Active.

A further series relates to LNCaP. As to the kind of experiment: Reduction in KLK3 gene expression in AR positive human LNCaP cells assessed as reduction in mRNA level at 1000 nM measured after 6 hrs by qRT-PCT analysis. In kind it is functional, cell-based.
Details: not given
As for `CNC(=O)c1ccc(N2C(=S)N(c3ccc(C#N)c(C(F)(F)F)c3)C(=O)C2(C)C)cc1F` [ENZALUTAMIDE], the outcome was Active.

For a further series, the system named is LNCaP. As to the kind of experiment: Reduction in AR gene expression in AR positive human LNCaP cells assessed as reduction in mRNA level at 1000 nM measured after 6 hrs by qRT-PCT analysis. In kind it is functional, cell-based.
Details: not given
On to `CNC(=O)c1ccc(N2C(=S)N(c3ccc(C#N)c(C(F)(F)F)c3)C(=O)C2(C)C)cc1F` [ENZALUTAMIDE], for which the result was inactive.

The subject of the next series is LNCaP. The series is described as follows: Reduction in c-Myc gene expression in AR positive human LNCaP cells assessed as reduction in mRNA level at 1000 nM measured after 6 hrs by qRT-PCT analysis. It counts as functional, cell-based.
Details: not given
In the case of `CNC(=O)c1ccc(N2C(=S)N(c3ccc(C#N)c(C(F)(F)F)c3)C(=O)C2(C)C)cc1F` [ENZALUTAMIDE], the outcome was Active.

In the next series the test system is CWR22R. As to the kind of experiment: Reduction in KLK3 gene expression in AR positive human 22Rv1 cells assessed as reduction in mRNA level at 1000 nM measured after 6 hrs by qRT-PCT analysis. It counts as functional, cell-based.
Details: not given
As for `CNC(=O)c1ccc(N2C(=S)N(c3ccc(C#N)c(C(F)(F)F)c3)C(=O)C2(C)C)cc1F` [ENZALUTAMIDE], the outcome was Active.

A further series deals with CWR22R. The series is described as follows: Reduction in AR gene expression in AR positive human 22Rv1 cells assessed as reduction in mRNA level at 1000 nM measured after 6 hrs by qRT-PCT analysis. In kind it is functional, cell-based.
Details: not given
With `CNC(=O)c1ccc(N2C(=S)N(c3ccc(C#N)c(C(F)(F)F)c3)C(=O)C2(C)C)cc1F` [ENZALUTAMIDE], the outcome was inactive.

A further series deals with CWR22R. As to the kind of experiment: Reduction in c-Myc gene expression in AR positive human 22Rv1 cells assessed as reduction in mRNA level at 1000 nM measured after 6 hrs by qRT-PCT analysis.
Details: not given
In kind it is functional, cell-based.
Turning to `CNC(=O)c1ccc(N2C(=S)N(c3ccc(C#N)c(C(F)(F)F)c3)C(=O)C2(C)C)cc1F` [ENZALUTAMIDE], the result was Active.

For another series, the system named is VCaP. As to the kind of experiment: Antitumor activity against human VCaP cells xenografted in CB17 SCID mouse model assessed as tumor growth inhibition at 20 mg/kg, po qd scheduled 5 days in a week measured on day 63. It counts as functional. Particulars: 1512 h, time 63 day, read-out: TGI. For orientation: Xenograft models place foreign cells or tissue in a host animal.
Regarding `CNC(=O)c1ccc(N2C(=S)N(c3ccc(C#N)c(C(F)(F)F)c3)C(=O)C2(C)C)cc1F` [ENZALUTAMIDE], the inhibition in vivo at 20 mg/kg was 2.8%.

For orientation: DC50 means the concentration giving 50% degradation. In general, Emax refers to the greatest response seen or fitted, relative to the assay's reference. Usually IC50 stands for the concentration that gives 50% inhibition. A low value points to inhibition by little substance.
